# Assay results as given in patent US9938240B2, “Fluorinated derivatives of 3-hydroxypyridin-4-ones” (Apotex Technologies Inc., priority 2009, dated 2018).
# Assays:
# [1] = Stepwise formation constants for Zn-ligand system by potentiometric titration; assay type: physicochemical; conditions: for pZn^2+: pH 7.4, ligand 10 μM, metal 1 μM
# Description: In a typical experiment, the sample solution was prepared by the following method: Apo7041 (126.3 mg, 0.50 mmol) was weighed into a 50 mL volumetric flask, and about 35 mL of a mixed solvent (0.1 M NaCl aqueous:MeOH, 1:1, v:v) was added. The mixture was sonicated for 10 min to give a clear colorless solution. The zinc stock solution (atomic absorption standard, Aldrich, 6.64 mL, 0.10 mmol) was pipetted into the solution followed by addition of sodium hydroxide solution (6.000 N, 300 μL). More of the mixed solvent was added to volume and the resulting solution was vortexed to mix. The molar ratio between the total zinc and the total Apo7041 was 1/5. 40 mL of the solution was transferred into a T70 titration cell by using a 10 mL digital pipet. A 6.000 N sodium hydroxide solution (160 μL) was added, and the pH (11.95) of the solution was recorded. The solution was allowed to equilibrate at 22° C. for 5 min.
# The solution was then titrated against a 6.000 N hydrochloric acid solution at 22° C. by using a Mettler Toledo T70 autotitrator, until the pH reached 1.5. The volume of acid added and the pH reading were recorded. Thus, 523 measurements were taken for this experiment.
# The data set of pH vs. acid volume for Zn-Apo7041 system was analyzed using Hyperquad 2000 software (version 2.1, Peter Gans, University of Leeds). The formation constants for Zn-Apo7041 system were optimized using the model shown in the first column of the table 29D. The results are shown in the second and third column.
# pM^n+ is defined as −log [M(H2O)m]^n+ at physiological conditions, i.e.: pH 7.4, a ligand concentration of 10 μM, and a metal concentration of 1 μM. To calculate pM^n+ for a MLn system, βn and pKa values are needed (βn are the formation constants for M^n++n L^−⇄MLn; pKa are the equilibrium constants for L^−+n H^+⇄LHn^(n-1)+). The pM^n+ is calculated using the HySS software (HYSS© 2000 Protonic Software).
# [2] = pKa determination by potentiometric titration; assay type: physicochemical
# Description: The pKa values of ligands were determined by potentiometric titration when a ligand concentration >1×10^−2 M in water could be prepared. In a typical experiment, the sample solution (1.00×10^−2 M) was prepared by the following method: Apo7041 (125.4 mg) was weighed into a 50 mL volumetric flask, and about 40 mL of 0.1 M NaCl was added. The mixture was sonicated for 10 min to give a clear colorless solution. More of the 0.1 M NaCl was added to volume and the resulting solution was vortexed to mix. 40 mL of the solution was transferred into a T70 titration cell by using a 10 mL digital pipet A 6.000 N sodium hydroxide solution (127 μL, 1.9 equiv) was added, and the pH (11.82) of the solution was recorded. The solution was allowed to equilibrate at 22° C. for 5 min.
# The solution was then titrated against a 6.000 N hydrochloric acid solution at 22° C. by using a Mettler Toledo T70 autotitrator, until the pH reached 1.5. The volume of acid added and the pH reading were recorded. Thus, 501 measurements were taken for this experiment.
# The data set of pH vs. acid volume was analyzed using Hyperquad 2000 software (version 2.1, Peter Gans, University of Leeds). The pKa values were obtained using the model: L^−+H^+⇄LH (pKa1), LH+H^+⇄LH2^+, and LH2^++H^+⇄LH3^2+ (pKa3).
# The pKa values of Apo7041 in the same mixed solvent were also determined by potentiometric titration using the procedure described in Example 1.
# [3] = Distribution coefficient determination, D7.4 (1-octanol / K2HPO4 buffer); assay type: physicochemical; conditions: 1-octanol / K2HPO4 buffer 50 mM pH 7.4
# Description: K2HPO4 buffer (50 mM, pH=7.4) and 1-octanol were used as the aqueous phase and the organic phase, respectively. The K2HPO4 buffer and 1-octanol were mixed, and pre-saturated with each other before use.
# In a typical experiment, an aqueous solution of Apo6995 (3-hydroxy-2-methyl-1-(2,2,2-trifluoroethyl)pyridin-4(1H)-one) was prepared by weighing out 3 mg of the compound into a 10-mL test-tube. It was then mixed with K2HPO4 buffer (2 mL) and sonicated for 30 minutes with frequent vortexing. The solution was then filtered through HPLC syringe filter (4 mm PVDF syringe filter 0.45 μM) to obtain the aqueous solution.
# One mL of this aqueous solution was pipetted out into another 10-mL test-tube and mixed with 1 mL of 1-octanol. The mixture was then vortexed for 1 hour. The solution was centrifuged at 2000 rpm for 10 minutes. A small amount of the lower aqueous layer was carefully pipetted out and analyzed by HPLC to obtain the peak height (HF). The distribution coefficient, D7.4, was calculated using the following equation: D7.4=(HI−HF)/HF.
# [4] = Pharmacokinetics following oral administration to rats; assay type: in vivo, male Sprague Dawley rats; conditions: rat, oral 50 mg/kg in 0.5% CMC; for Brain AUC_D_obs / Brain Cmax_D / Plasma AUC_D_obs / Plasma Cmax_D: dose-normalized
# Description: Adult male Sprague Dawley rats (275-325 g, Charles River Laboratories, Saint Constant, Quebec) were orally dosed with 50 mg/kg of test compound (Apo7323, Apo7433, Apo7435 or Apo7448) suspended in 0.5% carboxymethylcellulose (CMC) in water. For each test compound, samples were obtained from the plasma and brain of three animals per time point, at 0 (dosed with 0.5% CMC), 0.25, 0.5, 1, 2, 4, 8 and 12 h following administration. The concentration of the compound in rat plasma and brain samples was determined by HPLC-UV. Pharmacokinetic parameters were computed using the PKPlus Module in GastroPlus® ver. 8.0 (Simulations Plus Inc., Lancaster, Calif.). Calculation method: linear trapezoidal with linear interpolation.
# [5] = 0.1M aqueous NaCl/MeOH, 1/1, v/v
# [6] = 0.1M aqueous NaCl/MeOH, 1/1, v/v, listed as drawing 104
# [7] = potentiometric, 0.1 M NaCl, 22° C.
# [8] = 0.1M aqueous NaCl (Table 1, Fe3+ chelation, footnote b)
structure (smiles),measurement,setting,value
"CN(C)C(c1c(O)c(=O)ccn1C)C(F)(F)F (centres unmarked) [Apo7041, 2-[1-(dimethylamino)-2,2,2-trifluoroethyl]-3-hydroxy-1-methylpyridin-4(1H)-one]",Log β111 (Zn2+),[1]; [5],13.1
same,Log β120 (Zn2+),[1]; [5],13.2
same,Log β121 (Zn2+),[1]; [5],19.6
same,Log β111 (Zn2+),[1]; [6],Logβ111 = 13.1
same,Log β120 (Zn2+),[1]; [6],Logβ120 = 13.2
same,Log β121 (Zn2+),[1]; [6],Logβ121 = 19.6
same,pZn^2+,[1],pZn^2+ = 6.0
same,pKa1 + pKa2,[2]; 0.1 M NaCl,12.91
same,pKa1 + pKa2 + pKa3,[2]; 0.1 M NaCl,14.57
same,pKa1 + pKa2 + pKa3,[2]; [5],15.3
same,pKa3,[2]; [5],pKa3 = 2.0
same,pKa1,[2]; [6],pKa1 = 10.1
same,pKa1,[2]; [7],9.39
same,pKa2,[2]; [7],3.52
same,pKa3,[2]; [7],1.66
"CN(C)Cc1c(O)c(=O)ccn1CC(F)(F)F [Apo7067, 2-[(dimethylamino)methyl]-3-hydroxy-1-(2,2,2-trifluoroethyl)pyridin-4(1H)-one]",D7.4,[3],2.82
same,logD,[3]; read-out: Log D7.4,0.45
"O=c1ccn(CC(F)(F)F)c(CN2CCOCC2)c1O [Apo7323, 3-hydroxy-2-(morpholinomethyl)-1-(2,2,2-trifluoroethyl)pyridin-4(1H)-one]",CL,[4],33.2 mL/min/kg
same,Brain AUC_D_obs,[4],1.010 kg·µg·h/mL/mg
same,Brain Cmax_D,[4],0.218 kg·µg/mL/mg
same,Plasma AUC_D_obs,[4],1.630 kg·µg·h/mL/mg
same,Plasma Cmax_D,[4],0.400 kg·µg/mL/mg
"Cc1c(O)c(=O)c(C(N2CCOCC2)C(F)(F)F)cn1C (centres unmarked) [Apo7435, 3-hydroxy-1,2-dimethyl-5-(2,2,2-trifluoro-1-morpholinoethyl)pyridin-4(1H)-one]",CL,[4],110 mL/min/kg
same,Brain AUC_D_obs,[4],0.122 kg·µg·h/mL/mg
same,Brain Cmax_D,[4],0.102 kg·µg/mL/mg
same,Plasma AUC_D_obs,[4],0.516 kg·µg·h/mL/mg
same,Plasma Cmax_D,[4],0.312 kg·µg/mL/mg
"Cc1c(O)c(=O)ccn1C [Deferiprone, 3-hydroxy-1,2-dimethylpyridin-4(1H)-one, reference compound]",Log β120 (Zn2+),[1]; [5],15.0
same,Logβ1 (Zn2+),[1]; [5],Logβ1 = 8.1
same,Logβ2 (Zn2+),[1]; [5],Logβ2 = 15.0
same,pZn^2+,[1],pZn^2+ = 6.3
same,D7.4,[3],0.17
same,Log D7.4,[3],−0.77
same,pKa1,[2]; [8],pKa1 = 9.92
same,pKa2,[2]; [8],pKa2 = 3.55
